Counter-ions that a name gives are not always drawn.
Tests used:
[1] = cited from earlier work
[2] = Cytotoxicity in Vero cells (MTT); assay type: cell-based; conditions: monkey
Protocol: (§1) The product was evaluated for its effective concentration against the virus without causing toxicity to the tested cells. The virus (HSV-1) was added to different dilutions of the product and incubated for 1 hour at 37°C. Then, the solution was diluted (1:10) and added to Vero cells (ATCC CCL-81) for incubation for 72 hours at 37°C and 5% CO2. Positive control (virus without treatment with the inclusion compounds) and negative control (cells without virus and without treatment) were used, under the same conditions, in all tests. The results were evaluated by MTT (Mosmann, 1983; Sieuwerts et al., 1995). The assays were carried out in a NB-2 laboratory (Biosafety Level 2) following Good Laboratory Practices (GLP) and in accordance with the recommendations of ANVISA (Art. 1 and Art. 3 of IN 04/13 and IN 12/16).

HSV-1 = assay: Virucidal assay: HSV-1 incubated with product, then added to Vero cells, MTT readout; assay type: cell-based; conditions: 3 µg/mL
Protocol: as §1

Row | Compound | plasma protein binding [1] | CC50 at 72 h [2] [µg/mL] | inactivation of HSV-1 (HSV-1)
1 | Nc1nc2c(ncn2COCCO)c(=O)[nH]1 [Acyclovir] | less than 20% |  | 
2 | N=C(NCCCCCCNC(=N)NC(=N)Nc1ccc(Cl)cc1)NC(=N)Nc1ccc(Cl)cc1 [digluconate salt of chlorhexidine] |  | > 3 | unable to inactivate HSV-1

Reference: patent EP4620476A1, “ANTIVIRAL COMPOSITION CONTAINING INCLUSION COMPOUNDS WITH CYCLODEXTRINS AS ACTIVITY MODULATORS AND ANTISEPTIC ACTIVES AND USES THEREOF” (Silva, Renata Moisés Iwamizu, priority 2022, dated 2024)
